Results as given in a melting point compilation (Tetko et al.; mined from patent text by program, amines drawn as free bases though some values may be those of a salt).

Row | melting point [°C] | Structure (SMILES)
1 | 96 to 98 | CCc1cccc(C2=NC(C)(C)CO2)c1C
2 | 137 to 138 | Nc1sc2c(c1C(=O)c1cccc(C(F)(F)F)c1)CCN(CCc1ccccc1)C2
3 | 190 to 192 | Cc1cccc(C(=O)c2cc3c(ccc4ccccc43)oc2=O)c1
4 | 208 to 210 | COc1ccc(-c2c(Cl)c(CN3C(=O)CCC3=O)nc3sc4c(c23)CCN(C(C)=O)C4)cc1OC
5 | 95 to 97 | CCN(CC)CCC1(C(N)=O)Cc2ccccc2N(CC)c2ccccc21 (stereo unspecified)
6 | 209 to 211 | Cc1c(N2CCN(Cc3ccccc3)CC2)c(F)cc2c(=O)c(C(=O)O)cn(C3CC3)c12
7 | 224 to 226 | CCNc1ccccc1Nc1c(C(=O)O)cnc2c1cnn2CC
8 | 210 | O=C(Oc1ccccc1OC(=O)c1cc(O)c(O)c(O)c1)c1cc(O)c(O)c(O)c1
9 | 267 to 268 | CNc1cc(Oc2ccc3c(C(=O)O)cccc3c2)ncn1
10 | 129 to 131 | O=C(Nc1ccc(Cl)c(C(F)(F)F)c1)c1ccccc1SSc1ccccc1C(=O)Nc1ccc(Cl)c(C(F)(F)F)c1
11 | 205 | CCCCc1nc(SC)c(C(=O)O)n1Cc1ccc(-c2ccccc2S(=O)(=O)NC(=O)C(c2ccccc2)c2ccccc2)cc1
12 | 106 to 110 | Cn1c(SCC(=O)NCCC[N+](C)([O-])Cc2ccc(Cl)c(Cl)c2)nc2ccccc21 (stereo unspecified)
13 | 64 to 67 | COC(=O)CSCCCCN(c1cnc(-c2ccccc2)c(-c2ccccc2)n1)C(C)C
14 | 219 to 221 | N#Cc1ccc(NC(=O)NCCCN2CCN(CCCc3ccc(Cl)cc3)CC2)cc1
15 | 115 | CN1CCc2c(CO)csc2C(c2ccccc2)C1 (stereo unspecified)
16 | 135 to 136 | CC(=O)c1c(CO[N+](=O)[O-])n(C(C)=O)c(=O)n1C(C)=O
17 | 214 to 217 | Cc1cc(C2(c3ccc(Cl)cc3)OCCS2)ccc1NC(=O)c1cccc(I)c1C(=O)NC(C)C (stereo unspecified)
18 | 232 to 233 | O=C1N=Nc2ccccc21
19 | 250 to 251 | CCOC(=O)c1cc(Br)cc2c(=O)cc(-c3cccc(OCc4nc5ccccc5s4)c3)oc12
20 | 202 to 204 | Cc1cc(=O)n2ncn(N)c2n1
21 | 69 to 72 | O=C1c2ccccc2C(=O)N1CCOCCl
22 | 143 | COc1ccc(S(=O)(=O)C2(C(=O)NO)CCN(CCCc3ccccc3)CC2)cc1
23 | 246 to 248 | CCN1C(=O)C(=S2CN(CC)c3ccccc32)SC1=S (stereo unspecified)
24 | 180 | CC1CCCN1C1CCN(c2ccc(C(=O)NC3CCOCC3)cc2)C1 (stereo unspecified)
25 | 119 to 120 | CC(=O)N(CCCCCC(=O)O)C(c1ccccc1)c1ccccc1

Row | melting point [°C] | Structure (SMILES)
26 | 193 to 194 | COc1ccccc1-c1n[nH]c2c(NCCO)cc(C)nc12
27 | 249 to 250 | COc1cc(OC)c2c(=O)[nH]c(-c3ccc(O)c(CCO)c3)nc2c1
28 | 270 to 272 | O=C(NC1CC1)c1ccc(N2CCN(Cc3cnc4c(c3)[nH]c(=O)n3cccc43)CC2)cc1
29 | 65 to 75 | Cc1ccc(C(=O)c2c(-c3ccc(OCC(O)CNC(C)C)cc3)oc3ccccc23)cc1 (stereo unspecified)
30 | 198 to 200 | CCCCNC(=O)c1cccc(S(=O)(=O)NC(=O)c2ccc(C(=O)NCC(=O)OC)nc2)c1
31 | 143 to 144 | Oc1ccc(CCCCCCc2ccc(O)cc2)cc1
32 | 87 to 89 | CC1(c2ccc3c(c2)CC(=O)N3CC(F)(F)F)OCCO1
33 | 222 to 225 | Nc1nc(Cl)c2[nH]c(=O)n(CCCCO)c2n1
34 | 147 to 148 | COc1ccc(C=C(Br)Br)c(OC)c1
35 | 89.2 to 89.5 | CCOC(=O)C1(C)OC(C)=C(O)C1=O (stereo unspecified)
36 | 96 to 98 | CCOCCN(CC1=CCC(N)(Oc2ccccc2)C=C1)C(=O)C(Cl)Cl (stereo unspecified)
37 | 182 to 183 | O=C(CCCN1C(=O)c2ccccc2C1=O)N1CCCC2=C1CCc1cc(Cl)ccc12
38 | 85.5 to 88.6 | C=Cc1ccc2c(c1)CCN2C(=O)OC(C)(C)C
39 | 46 to 49 | CC1(C)C(=O)N([Si](C)(C)C)C(=O)N1[Si](C)(C)C
40 | 248 to 249 | Cc1c(-c2ccccc2)[nH]c(=O)n1C1CCN(Cc2cccc(Cl)c2)CC1
41 | 142 to 144 | CN1C(=O)C2(COc3cc4c(cc32)OCO4)c2ccccc21 (stereo unspecified)
42 | 142 to 143 | Cc1c(NC(=O)c2ccc(CC(=O)C3CCOC3)cc2)ccc2cc(CN3CCCC3)cnc12 (stereo unspecified)
43 | 135 to 136 | CCCc1nn(-c2ccc(C(F)(F)F)cn2)cc1CCCOc1ccc(CC(=O)O)c(OC)c1
44 | > 260 | Cn1cc2c(n1)Nc1ccc(Cl)cc1NC2=O
45 | 112 to 118 | CC(C)(C)OC(=O)NCCNC(=O)c1cscn1
46 | 142 to 143 | COC(=O)CCC(C(=O)C=Cc1ccc(O)c(OC(F)(F)F)c1)C(=O)C=Cc1ccc(O)c(OC(F)(F)F)c1 (stereo unspecified)
47 | 78.5 to 80 | O=C(O)CCNC(=O)[C@H](Cc1ccccc1)OP(=O)(O)CCCCc1ccccc1
48 | 181 to 185 | COc1ccc2c(c1)c1c(n2C(=O)c2ccc(Cl)cc2)CCCC1C(=O)O (stereo unspecified)
49 | 87 to 90 | CC(C)(C)c1ccc(C(O)CCCN2CCC(C(O)c3nc4ccccc4n3Cc3ccc(F)cc3)CC2)cc1 (stereo unspecified)
50 | 85 to 88 | O=C1CCCCN1S(=O)(=O)c1ccc(N2CCCCCC2)cc1

Row | melting point [°C] | Structure (SMILES)
51 | 89 to 90 | Cc1ccccc1C1=NC(C)(C)OC1c1ccc(N(C)C)cc1 (stereo unspecified)
52 | 116 to 117 | CCn1c(C(O)(Cc2ccccc2)Cc2ccccc2)nc(-c2ccncc2)c1-c1ccc(Cl)cc1
53 | 209 to 210 | O=C1c2cc([N+](=O)[O-])cc3c(N4CCCC4)c(Cl)cc(c23)C(=O)N1O
54 | 178 to 180 | COc1cc(-c2csc(C(N)=O)n2)cc(Cl)c1OC
55 | 35 to 37 | CCCCCCCCCCCCCCCCOc1ccccc1-c1ccccc1
56 | 157 to 158 | CCCOc1ncc2c(=O)[nH]c(-c3ccccc3OCCC)nc2n1
57 | 179 to 181 | Oc1ccc(O)c(C2(c3ccccc3)CC3CCC2C3)c1 (stereo unspecified)
58 | 166 to 170 | CSC(=S)NN=Cc1c[nH]c(-c2ccccc2)n1
59 | 171 to 173 | Nc1nc(Cl)cc(NCC2(CO)CC(=O)C2)n1
60 | 73 to 74 | OC(CCN1CCN(c2ccccc2)CC1)COc1cccc(C(F)(F)F)c1 (stereo unspecified)
61 | 256 to 258 | CCOC(=O)c1cn2c3c(c(F)c(F)cc3c1=O)CCC2CO (stereo unspecified)
62 | > 260 | NC1=C([N+](=O)[O-])C(=O)NC1=Cc1ccccc1
63 | 35 to 37 | Cc1cc([N+](=O)[O-])ccc1NC1CC1
64 | 186 to 187 | COc1ccc(C(=O)Nc2cc(NC(=O)c3ccc(OCCCCl)cc3)ccc2C)cc1OC
65 | 103 to 105 | O=C(O)C(=O)c1ccc(OC/C=C/c2ccccc2)cc1
66 | 113 to 114 | CCCC(=O)NCCc1c[nH]c2ccc(OCCN3CCCCC3)cc12
67 | > 250 | Cc1ccccc1NC(=O)N[C@H]1C[C@@](N)(C(=O)O)[C@@H]2[C@@H](C(=O)O)[C@@H]21 (relative stereo)
68 | 64 to 66 | COC(=O)CCCCCCCCCCNC(=O)C(CSC(C)=O)Cc1ccccc1 (stereo unspecified)
69 | 167 to 169 | CCCCCCCCCCCC(=O)c1c[nH]c2cc(C(=O)OC)ccc12
70 | 180 | CCNC(=O)C1OC(n2cnc3c(NCc4ccc(O)cc4)ncnc32)C(O)C1O (stereo unspecified)
71 | 75 to 77 | CC(C#CCOc1ccccc1)N(O)C(N)=O (stereo unspecified)
72 | 121 | Cc1ccc(-c2cc(C(F)(F)F)n3ncc(C#N)c3n2)cc1
73 | 93 to 94 | CON=C(C)C(C)=NOc1ccccc1C(=NOC)C(=O)OC
74 | 150 | c1ccc(-c2cn(C3CCCN4CCCCC34)nn2)cc1 (stereo unspecified)
75 | 59 | C=C(C)C(=O)OC(C1CCCC1)C(O)(C(F)(F)F)C(F)(F)F (stereo unspecified)

Row | melting point [°C] | Structure (SMILES)
76 | 179 to 181 | Clc1nc(N2CCOCC2)c2ncnc(Cl)c2n1
77 | 135 to 136 | CC(=O)n1ncc2c(O)ccc(C)c21
78 | 180 to 183 | Cc1cc2cc(CN3CCCC3)cnc2cc1NC(=O)c1ccc(-c2ccccc2)cc1F
79 | 84 to 85 | O=C1CCCC(=O)N1C(Sc1nnn[nH]1)c1ccccc1 (stereo unspecified)
80 | 198 to 199 | COc1ccc(C(=O)Nc2ccccc2)cc1Nc1cc(C)cc(C)c1
81 | 110 to 111 | CCn1c(SCc2ccccn2)nc2ccccc2c1=O
82 | 64 to 65 | OCC(CO)Cc1ccccc1
83 | 140 | CCOC(=O)C1=C(N)NC(C)=CC1c1cccc(Cl)c1 (stereo unspecified)
84 | 264 | O=C(NCCCCN1CCC(c2cccc3ccccc23)CC1)c1ccc(NC(=O)c2ccc(Cl)cc2)cc1
85 | 55 | COc1ccc(N(N)Cc2ccc(Cl)cc2)cc1
86 | 102 to 103 | COc1ccc(S(=O)(=O)NCCCCCCCC(=O)O)cc1
87 | 193 | CC(C)Nc1c(-c2c(F)cc(F)cc2F)c(Cl)nc2ncccc12
88 | 210 | C=Cn1cc(C(=O)O)c(=O)c2cc(F)c(Cl)cc21
89 | 138 to 142 | CON=C(C(=O)O)c1nsc(NC(=O)OCc2ccccc2)n1
90 | 138 to 142 | CCN(CC)c1nc2cc(-c3ccccc3C#N)ccc2[nH]1
91 | 240 to 241 | Cn1c(=O)c(-c2c(Cl)cccc2Cl)cc2cnc(Nc3ccc4c(c3)OCO4)nc21
92 | 148 to 149 | CC(C)CNC(=NC#N)Nc1cccnc1
93 | 271 to 273 | Oc1ncc(-c2ccc(C(F)(F)F)cc2)cn1
94 | 84 to 86 | COC(=O)C(=CNc1cc(-c2cccc(Cl)c2)sc1C(=O)O)SC
95 | 110 to 112 | COc1ccccc1N1CCN(CCN(C(=O)C2CCCCC2)c2ccccc2OCC(F)(F)F)CC1
96 | 179 | CCOc1ccc2c(c1)n(C1CCCCC1)c(=O)n2S(=O)(=O)c1ccc(C(=O)Nc2ccccc2C)cc1OC
97 | 162 to 164 | CC(=O)OCc1ccc2oc(=O)c(C(=O)Oc3cc([N+](=O)[O-])ccc3[N+](=O)[O-])cc2c1

Row | Structure (SMILES) | melting point [°C]
98 | CN(C(=O)Oc1ccc(Cl)c(C(C)(C)C)c1)c1cccc(Cl)c1 | 65 to 67
99 | C=CC1CC2=CC(=O)CCC2C2CCC3(C)C(OC(C)=O)CCC3C12 (stereo unspecified) | 130 to 134
100 | S=C1CN=C(c2ccccc2Cl)c2cc(Cl)ccc2N1 | 251 to 253
101 | [N-]=[N+]=NC(=O)c1csc(Cl)n1 | > 250
